Results reported in patent publication US20150133454A1, “NANOSTRUCTURED MUCOADHESIVE MICROPARTICLES” (SNU R&DB FOUNDATION, priority 2012, published 2015).

How the values were obtained:
[1] = tested on: Intra ocular pressure (IOP) of the rabbit eye; experiment: Therapeutic effect: decrease in IOP after administration of drug-loaded formulations; type: in vivo; settings: topical, 556.5 μg dorzolamide (25 μl of Trusopt 2%)
Experimental: The formulation of microparticles as prepared in Examples 6-1 and 6-2 was administered to the rabbit eye according to Example 4 and IOP was measured as described in Example 5.
For testing therapeutic effect by BRT, a total of 7 samples were used. […] For testing therapeutic effect by dorzolamide, 25 μl of Trusopt 2% (MSD, USA), PVA tablet (just containing 556.5 μg of dorzolamide 556.5 μg without any microparticles) and four different types of microparticles prepared as described above containing 556.5 μg dorzolamide were used for the test.
Then, a device for measuring IOP called Tonopen as described in Example 5 was used to measure IOP before the administration and 0.5 h˜13 h after the administration to confirm the efficacy of the drug.

[2] = Pharmacokinetic analysis: brimonidine concentration in aqueous humor; type: in vivo; settings: brimonidine in rabbit aqueous humor after topical administration
Experimental: Seven different formulations loaded with brimonidine prepared as described in Example 6-1 were topically administered to the rabbit eye and pharmacokinetics of the drug administered was examined as described below from the aqueous humor taken at a specified time in FIG. 12 after the administration. Specifically, the rabbit was generally anesthetized as described in Example 4 at the specified time after the administration and 50 μl of Aqueous humor (AH) was obtained from the rabbit eye using 1 ml syringe with 30 gauge needle, which was then used for SPE (Solid Phase Extraction) and HPLC analysis. First, Brimonidine Stock solution was prepared at the final concentration of […] in distilled water, from which 2000, 1000, 800, 600, 400, 200, 100, and 50 μg/ml of Brimonidine solution were prepared. For the calibration, 25 μl of AH from no treatment control, 25 μl Stock Solution (2000, 1000, 800, 600, 400, 200, 100, 50 μg/ml), 50 μl IS (Internal standard, clonidine)(50 μg/ml) and 200 μl of PBS (pH=8) were mixed and centrifuged at 11000×g for 10 min. and 100 μl of the supernatant was used for SPE analysis.
For the sample from the rabbit eye treated with the drug, 50 μl of AH, 50 μl of IS (50 μg/ml) and 200 μl of PBS (pH=8) were mixed and centrifuged at 11000×g for 10 min and 100 μl of the supernatant was used for SPE analysis. SPE (Bond-Eluct-C18, 100 mg, 1 ml, Agilent Technologies) analysis was proceed as below. Before the sample injection, it was washed with MeOH (1 ml) and distilled water (1 ml). Each sample for the calibration and for the analysis was then injected and washed with 1 ml of PBS and eluted with 1 ml of 70% acetonitrile, followed by evaporation for 3 hrs at 40° C. using SpeedVac (Thermo Savant SPD 2010 SpeedVac System, Thermo Electron Corporation, USA). […]
HPLC (Agilent 1260 Series, Agilent Technologies, CA, USA) was used for determining the concentration, in which 50 μl of sample was injected and analyzed under the following condition: Mobile phase=20 mM phosphate buffer (pH=2.5) : MeOH=9:1, flow rate 1 ml/min, 248 nm

For `CCN[C@H]1C[C@H](C)S(=O)(=O)c2sc(S(N)(=O)=O)cc21` [Dorzolamide solution, Dorzolamide], the “time for which the formulation was effective in decreasing IOP (Dorzolamide)” value [1] was 5 h.

For Brimonidine Tartrate [BRT solution], the AUC [2] was 795 ng·h/mL, the Cmax [2] was 692 ng/mL and the tmax [2] was 40 min.
